In ChEMBL document CHEMBL1201862, “PubChem BioAssay data set” (2004):
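Growth conditions: 96-well plates. Treatment: test compound, 48 hours, 5 concentrations. Analysis: linear interpolation between bracketing concentrations; unreached endpoints set to highest concentration. At the GI50, growth is halved.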 The source made the active and inactive calls. Cut-off read from the data, not from the text of the source: active = GI50 up to about 1.1 µM and inactive = higher.

Columns and labels:
Test in all cases: NCI-60 cell line screen, 48 h
DU-145 = test system: DU-145
OVCAR-3 = test system: OVCAR-3
ACHN = test system: ACHN
K562 = test system: K562
PC-3 = test system: PC-3
SK-MEL-5 = test system: SK-MEL-5
A549 = test system: A549
SW-620 = test system: SW-620
SF-268 = test system: SF-268
NCI-H522 = test system: NCI-H522
SNB-19 = test system: SNB-19
UACC-257 = test system: UACC-257
MDA-MB-231 = test system: MDA-MB-231
COLO 205 = test system: COLO 205
HCT-116 = test system: HCT-116
HCC 2998 = test system: HCC 2998

Measured: GI50

CC(C)(C)/C(=N\Nc1nc2ccccc2[nH]1)c1ccccn1
inactive: DU-145 95.9 µM | OVCAR-3 24.3 µM | ACHN 81.3 µM | K562 99.8 µM | PC-3 81.5 µM | SK-MEL-5 87.9 µM | A549 > 100 µM | SW-620 65.2 µM | SF-268 > 100 µM | NCI-H522 33.9 µM | SNB-19 > 100 µM | UACC-257 > 100 µM | MDA-MB-231 > 100 µM | COLO 205 33 µM | HCT-116 22.8 µM

CC1=NNC(=O)C1C1C=C(c2c[nH]c3ccccc23)OC1=O (stereo not drawn)
inactive: DU-145 > 100 µM | OVCAR-3 > 100 µM | ACHN > 100 µM | K562 62.4 µM | PC-3 > 100 µM | SK-MEL-5 > 100 µM | A549 > 100 µM | SW-620 > 100 µM | SF-268 > 100 µM | NCI-H522 > 100 µM | SNB-19 > 100 µM | UACC-257 > 100 µM | MDA-MB-231 > 100 µM | COLO 205 > 100 µM | HCT-116 > 100 µM

Clc1cc(Cl)c2cc3cccc[n+]3cc2c1Cl
inactive: DU-145 15.2 µM | OVCAR-3 12.1 µM | ACHN 16.3 µM | K562 19 µM | HCC 2998 17.1 µM | PC-3 14 µM | SK-MEL-5 16 µM | A549 17.2 µM | SW-620 17.6 µM | SF-268 12.8 µM | SNB-19 14.9 µM | UACC-257 15.2 µM | MDA-MB-231 17.9 µM | COLO 205 14.8 µM | HCT-116 6.44 µM

O=C(OCCN=C1c2ccccc2CCc2ccccc21)c1cc([N+](=O)[O-])cc([N+](=O)[O-])c1
inactive: DU-145 > 31.6 µM | OVCAR-3 23.3 µM | ACHN > 31.6 µM | K562 20.7 µM | PC-3 > 31.6 µM | SK-MEL-5 27.2 µM | A549 26.7 µM | SW-620 > 31.6 µM | SF-268 > 31.6 µM | SNB-19 > 31.6 µM | UACC-257 > 31.6 µM | MDA-MB-231 > 31.6 µM | COLO 205 > 31.6 µM | HCT-116 > 31.6 µM

CC[C@@]1(C)CCC2c3ccc(O)cc3CC[C@H]2C1C (stereo partly drawn)
inactive: DU-145 16.6 µM | OVCAR-3 20.6 µM | ACHN 18.2 µM | K562 8.75 µM | HCC 2998 13.7 µM | PC-3 19.8 µM | SK-MEL-5 16.9 µM | A549 17.9 µM | SW-620 17 µM | SF-268 15.5 µM | NCI-H522 19.3 µM | SNB-19 17.5 µM | UACC-257 15.7 µM | COLO 205 17 µM | HCT-116 17.7 µM

C[C@]12C(=O)OC[C@H](c3ccccc3)N1C(=O)N(Cc1ccccc1)[C@@H]2CO
inactive: DU-145 > 100 µM | OVCAR-3 > 100 µM | ACHN > 100 µM | K562 > 100 µM | HCC 2998 > 100 µM | PC-3 > 100 µM | SK-MEL-5 > 100 µM | A549 > 100 µM | SW-620 > 100 µM | SF-268 > 100 µM | SNB-19 > 100 µM | UACC-257 > 100 µM | MDA-MB-231 > 100 µM | COLO 205 > 100 µM | HCT-116 > 100 µM

Nc1ncnc2ccc(Sc3ccc4ncnc(N)c4c3)cc12
inactive: DU-145 > 100 µM | OVCAR-3 > 100 µM | ACHN > 100 µM | K562 > 100 µM | PC-3 > 100 µM | SK-MEL-5 > 100 µM | A549 > 100 µM | SW-620 > 100 µM | SF-268 > 100 µM | SNB-19 > 100 µM | UACC-257 > 100 µM | MDA-MB-231 > 100 µM | COLO 205 > 100 µM | HCT-116 > 100 µM

COC(=O)C1=COc2c(n(C)c3ccccc23)-c2ccccc21
inactive: DU-145 > 100 µM | OVCAR-3 > 100 µM | ACHN 74 µM | K562 > 100 µM | PC-3 > 100 µM | SK-MEL-5 71.1 µM | SW-620 > 100 µM | SF-268 > 100 µM | SNB-19 > 100 µM | UACC-257 > 100 µM | MDA-MB-231 > 100 µM | COLO 205 > 100 µM | HCT-116 > 100 µM

COC(=O)c1cccc(COc2ccc([N+](=O)[O-])cc2Cl)c1
inactive: DU-145 > 100 µM | OVCAR-3 63.4 µM | ACHN 53.3 µM | K562 72.4 µM | PC-3 > 100 µM | SK-MEL-5 51.1 µM | A549 42.5 µM | SW-620 > 100 µM | SF-268 > 100 µM | NCI-H522 63.7 µM | SNB-19 > 100 µM | UACC-257 > 100 µM | MDA-MB-231 82.8 µM | COLO 205 > 100 µM | HCT-116 > 100 µM

CC(=O)Nc1ccc2c(c1)[nH]c(=O)c1cc(Cl)ccc12
inactive: DU-145 19.9 µM | ACHN 23.9 µM | K562 34.1 µM | HCC 2998 38.5 µM | SK-MEL-5 15.9 µM | A549 5.61 µM | SW-620 27.7 µM | SF-268 26.9 µM | NCI-H522 27.1 µM | SNB-19 65.9 µM | UACC-257 20.3 µM | MDA-MB-231 44.8 µM | COLO 205 47.2 µM | HCT-116 17.4 µM

COc1c(N2CCCCC2)c2c(=O)c3ccccc3oc2c2c3ccccc3n(C)c12
inactive: DU-145 > 100 µM | OVCAR-3 > 100 µM | ACHN > 100 µM | K562 58.2 µM | HCC 2998 > 100 µM | PC-3 > 100 µM | SK-MEL-5 > 100 µM | A549 > 100 µM | SW-620 > 100 µM | SF-268 > 100 µM | SNB-19 > 100 µM | UACC-257 > 100 µM | MDA-MB-231 > 100 µM | COLO 205 26.2 µM | HCT-116 53.1 µM

Cc1nc2c(=S)n(C)ncc2[nH]1
inactive: OVCAR-3 > 100 µM | ACHN > 100 µM | K562 > 100 µM | HCC 2998 > 100 µM | PC-3 > 100 µM | SK-MEL-5 > 100 µM | A549 > 100 µM | SW-620 > 100 µM | NCI-H522 34 µM | UACC-257 > 100 µM | MDA-MB-231 > 100 µM | COLO 205 > 100 µM | HCT-116 > 100 µM

O=S(=O)(O)c1ccc2cc(/N=N/c3c(O)ccc4ccccc34)ccc2c1
inactive: DU-145 > 100 µM | OVCAR-3 > 100 µM | ACHN > 100 µM | K562 > 100 µM | HCC 2998 > 100 µM | PC-3 > 100 µM | SK-MEL-5 > 100 µM | A549 > 100 µM | SW-620 > 100 µM | SF-268 > 100 µM | NCI-H522 > 100 µM | SNB-19 > 100 µM | UACC-257 > 100 µM | COLO 205 > 100 µM | HCT-116 > 100 µM

CSc1ccc2c(c1)N(CCCN(C)C)c1ccccc1S2
inactive: DU-145 15.6 µM | OVCAR-3 12.8 µM | ACHN 11.7 µM | K562 4.28 µM | PC-3 11.1 µM | SK-MEL-5 11.4 µM | A549 15.4 µM | SW-620 15.2 µM | SF-268 13.6 µM | NCI-H522 12.8 µM | SNB-19 16.2 µM | UACC-257 7.16 µM | MDA-MB-231 12.7 µM | COLO 205 12.7 µM | HCT-116 12.7 µM
